Experimental data taken from patent US8507411B2, “Neoglycorandomization and digitoxin analogs” (priority 2004, dated 2013).
Read-outs that look alike come from different tables or passages of the source.

What was measured:
NmuMG = assay: cells; type: cell-based, mouse
Excerpt: (§1) In the assay, live cells were distinguished by the presence of a ubiquitous intracellular enzymatic activity which converts the non-fluorescent cell-permeable molecule calcein AM to the intensely fluorescent molecule calcein, which is retained within live cells. The IC50 value for each library member represents at least six replicates of dose-response experiments conducted over five concentrations using two-fold dilutions. […] Standard errors are depicted with error bars. Numerical values and corresponding error values can be found in Table 4. Du145: […]; MCF7: human breast carcinoma; HCT-116: human colon carcinoma, Hep3B: human liver carcinoma; SF-268: human CNS glioblastoma; SK-OV-3: human ovary adenocarcinoma; NCI-H460: human lung carcinoma; A549: human lung adenocarcinoma; NCI/ADR-RES: human breast carcinoma; NmuMG: mouse mammary normal epithelial.
(§2) Cell Culture: All cell lines except NmuMG were maintained in RPMI 1640 medium from InVitrogen (Cat No. 11875-085) supplemented with 10% w/v fetal bovine serum (FBS) from ICN (Cat No. 2916154) and penicillin-streptomycin (PS) (100 U/mL and 100 μg/mL) from InVitrogen (Cat No. 15140-122). NmuMG cells were maintained in DMEM medium from InVitrogen (Cat No. 11965-084) supplemented with 10% w/v fetal bovine serum (FBS) from ICN (Cat No. 2916154), 10 μg/ml insulin (InVitrogen Cat No 12585-014), and penicillin-streptomycin (PS) (100 U/mL and 100 μg/mL) from InVitrogen (Cat No. 15140-122). Cells were harvested by trypsinization using 0.25% w/v trypsin and 0.1% w/v EDTA from InVitrogen (Cat No. 15-050-057) and then counted in a hemocytometer in duplicate with better than 10% agreement in field counts. Cells were plated at a cell density of 10,000-15,000 cells/well of each Corning Costar 96-well black tissue culture treated microtiter plate (Fisher Cat No. 07-200-627). Cells were grown for 1 h at 37° C., with 5% CO2 in a humidified incubator to allow cell attachment to occur before compound addition.
(§3) Library Member Handling and Preparation for Cytotoxicity Assays: Library members were stored at −20° C. under dessicating conditions before the assay. Library member stocks (100×) were prepared in Corning Costar polypropylene 96-well V-bottom polypropylene microtiter plates (Fisher Cat No. 07-200-695). Five serial 1:2 dilutions were made with anhydrous DMSO at 100× the final concentration used in the assay.
(§4) Library Member Addition: The library member-containing plates were diluted 1:10 with complete cell culture media. The 10× stocks (10 μL) were added to the attached cells using a Biomek FX liquid handler (Beckman-Coulter). Library member stocks (10 μL) were added to 90 μL of cells in each plate to insure full mixing of stocks with culture media using a Beckman FX liquid handler with 96-well head.
(§5) Determination of Cytotoxicity: Cells were incubated with the library members for 72 h before fluorescence reading. Test plates were removed from the incubator and washed 1× in sterile PBS to remove serum containing calcium esterases. Calcein AM reagent (30 μL, […]) was added and the cells were incubated for 30 min at 37° C. Plates were read for emission using a fluorescein filter (excitation 485 nm, emission 535 nm).
(§6) IC50 Calculation: For each library member, at least six dose response experiments were conducted. […] To calculate IC50, percent inhibitions were plotted as a function of log [concentration] and then fit to a four-parameter logistic model that allowed for a variable Hill slope using XLfit 4.1.
(§7) Cytotoxicity Assays. All cell lines except NmuMG were maintained in RPMI 1640 medium supplemented with 10% w/v fetal bovine serum (FBS) and penicillin-streptomycin (PS) (100 U/mL and 100 μg/mL).

NCI-H460 = assay: High-throughput calcein AM cytotoxicity assay, NCI-H460; type: cell-based, human; settings: NCI-H460 cells
Excerpt: (§8) Standard errors are depicted with error bars.

MCF7 = assay: High-throughput calcein AM cytotoxicity assay, MCF7; type: cell-based, human; settings: MCF7 cells
Excerpt: as §8

SF-268 = assay: cells; type: cell-based, human; settings: SF-268 cells
Excerpt: as §1, §2, §3, §4, §5, §6, §7

SK-OV-3 = assay: cells; type: cell-based, human; settings: SK-OV-3 cells
Excerpt: as §1, §2, §3, §4, §5, §6, §7

NCI/ADR-RES = assay: cells; type: cell-based, human; settings: NCI/ADR-RES cells
Excerpt: as §1, §2, §3, §4, §5, §6, §7

HCT-116 = assay: High-throughput calcein AM cytotoxicity assay, HCT-116; type: cell-based, human; settings: HCT-116 cells
Excerpt: as §8

Du145 = assay: High-throughput calcein AM cytotoxicity assay, Du145; type: cell-based, human; settings: Du145 cells
Excerpt: as §8

Hep3B = assay: High-throughput calcein AM cytotoxicity assay, Hep3B; type: cell-based, human; settings: Hep 3B cells
Excerpt: as §8

A549 = assay: High-throughput calcein AM cytotoxicity assay, A549; type: cell-based, human; settings: A549 cells
Excerpt: as §8

[1] = NmuMG mouse mammary normal epithelial control line, read-out: IC50, NmuMG
[2] = NmuMG cells (mouse mammary normal epithelial control line), read-out: IC50

SMILES | IC50 (NmuMG; [1]) [µM] | IC50 (NCI-H460; read-out: IC50, NCI-H460) [µM] | IC50 (MCF7; read-out: IC50, MCF7) [µM] | IC50 (SF-268; read-out: IC50, SF-268) [µM] | IC50 (SK-OV-3; read-out: IC50, SK-OV-3) [µM] | IC50 (NCI/ADR-RES; read-out: IC50, NCI/ADR-RES) [µM] | IC50 (HCT-116; read-out: IC50, HCT-116) [µM] | IC50 (Du145; read-out: IC50, Du145) [µM] | IC50 (Hep3B; read-out: IC50, Hep 3B) [µM] | IC50 (A549; read-out: IC50, A549) [µM] | IC50 (NmuMG; [2]) [µM] | IC50 (NCI-H460; read-out: IC50) [µM] | IC50 (MCF7; read-out: IC50) [µM] | IC50 (SF-268; read-out: IC50) [µM] | IC50 (SK-OV-3; read-out: IC50) [µM] | IC50 (NCI/ADR-RES; read-out: IC50) [µM] | IC50 (HCT-116; read-out: IC50) [µM] | IC50 (Du145; read-out: IC50) [µM] | IC50 (Hep3B; read-out: IC50) [µM] | IC50 (A549; read-out: IC50) [µM]
CON([C@H]1CC[C@@]2(C)[C@H](CC[C@@H]3[C@@H]2CC[C@]2(C)[C@@H](C4=CC(=O)OC4)CC[C@]32O)C1)[C@H]1C[C@@H](O)[C@@H](O)[C@@H](CO)O1 [9β, 2-deoxy-D-galactoside] | > 25 | 2 | 5.1 | 8 | 4 | 0.9 | 10 | 7 | 3.6 | 1.3 |  |  |  |  |  |  |  |  |  | 
CON([C@H]1CC[C@@]2(C)[C@H](CC[C@@H]3[C@@H]2CC[C@]2(C)[C@@H](C4=CC(=O)OC4)CC[C@]32O)C1)[C@H]1O[C@@H](CO)[C@H](O)[C@H](O)[C@H]1O [19β, L-altroside] | 1 | 1.6 | 1.3 | 1.2 | 1 | 0.41 | 1.1 | 2.1 | 2 | 0.76 |  |  |  |  |  |  |  |  |  | 
CON(C1CCC2(C)C(CCC3C2CCC2(C)C(C4=CC(=O)OC4)CCC32O)C1)C1OC(CO)C(O)C(O)C1O [19α, L-altroside] | > 25 | > 25 | > 25 | > 25 | > 25 | > 25 | > 25 | > 25 | > 25 | > 25 |  |  |  |  |  |  |  |  |  | 
CON(C1CCC2(C)C(CCC3C2CCC2(C)C(C4=CC(=O)OC4)CCC32O)C1)C1OC(CO)C(O)C(O)C1O [42β, L-glucoside] | 1.2 | 1.3 | 0.6 | 1.9 | 1 | 0.55 | 0.9 | 1.3 | 0.9 | 0.8 |  |  |  |  |  |  |  |  |  | 
CON(C1CCC2(C)C(CCC3C2CCC2(C)C(C4=CC(=O)OC4)CCC32O)C1)C1OCC(O)C(O)C1O [15α, D-lyxoside] | > 25 | > 25 | > 25 | > 25 | > 25 | > 25 | > 25 | > 25 | > 25 | > 25 |  |  |  |  |  |  |  |  |  | 
CON(C1CCC2(C)C(CCC3C2CCC2(C)C(C4=CC(=O)OC4)CCC32O)C1)C1OCC(O)C(O)C1O [24α, D-xyloside] |  | > 25 | > 25 |  |  |  | > 25 | > 25 | > 25 | > 25 |  |  |  |  |  |  |  |  |  | 
CON([C@H]1CC[C@@]2(C)[C@H](CC[C@@H]3[C@@H]2CC[C@]2(C)[C@@H](C4=CC(=O)OC4)CC[C@]32O)C1)[C@@H]1O[C@H](CO)[C@H](O)[C@@H](O)[C@H]1O [25β, D-guloside] | 1.8 | 2.6 | 0.9 | 2 | 2.2 | 1.1 | 2.1 | 5.7 | 1.9 | 2 |  |  |  |  |  |  |  |  |  | 
CON(C1CCC2(C)C(CCC3C2CCC2(C)C(C4=CC(=O)OC4)CCC32O)C1)C1OC(CO)C(O)C(O)C1NC(C)=O [34α, N-acetyl-D-galactosaminoside] |  |  |  |  |  |  |  |  |  |  | > 25 | > 25 | > 25 | > 25 | > 25 | > 25 | > 25 | > 25 | > 25 | > 25
CON(C1CCC2(C)C(CCC3C2CCC2(C)C(C4=CC(=O)OC4)CCC32O)C1)C1OC(CO)C(O)C(O)C1O [26α, L-mannoside] |  | > 25 | > 25 | > 25 | > 25 | > 25 | > 25 | > 25 | > 25 | > 25 | > 25 |  |  |  |  |  |  |  |  | 
CON(C1CCC2(C)C(CCC3C2CCC2(C)C(C4=CC(=O)OC4)CCC32O)C1)C1OCC(O)C(O)C1O [23α, L-xyloside] |  | > 25 | > 25 |  |  |  | > 25 | > 25 | > 25 | > 25 |  |  |  |  |  |  |  |  |  | 
CON(C1CCC2(C)C(CCC3C2CCC2(C)C(C4=CC(=O)OC4)CCC32O)C1)C1OC(CO)C(OC2OC(CO)C(O)C(O)C2O)C(O)C1O (stereo not drawn) [37β, maltoside] |  | 6.1 | > 25 | 6 | 5 | 4.4 | 24 | 4.4 | 7 | 4.4 |  |  |  |  |  |  |  |  |  | 
CON(C1CCC2(C)C(CCC3C2CCC2(C)C(C4=CC(=O)OC4)CCC32O)C1)C1OC(CO)C(OC2OC(CO)C(O)C(O)C2O)C(O)C1O (stereo not drawn) [36β, lactoside] | > 25 | > 25 | > 25 | > 25 | 19 | 13 | > 25 |  | 26 | 24 |  |  |  |  |  |  |  |  |  | 
CON(C1CCC2(C)C(CCC3C2CCC2(C)C(C4=CC(=O)OC4)CCC32O)C1)C1OC(CO)C(OC2OC(CO)C(O)C(O)C2O)C(O)C1O (stereo not drawn) [37α, maltoside] |  |  |  |  |  |  |  |  |  |  | > 25 |  |  |  | > 25 | > 25 |  | > 25 | > 25 | > 25
